Measurements taken from US20240287062A1, “NAPHTHYRIDONE COMPOUNDS FOR INHIBITION OF RAF KINASES AND/OR BCR-ABL TYROSINE KINASES” (Enliven Inc., priority 2021, published 2024).

How the values were obtained:
Assay type in all cases: biochemical
ABL1 = ABL1 (Homo sapiens (Human), UniProt P00519); experiment: Luminescence-based ABL kinase assay (Km ATP), ADP-Glo; details: measured using the Abl1 Km assay, read-out: IC50 (nM), value inside parentheses
Protocol: (§1) Kinase activity of ABL1 was measured using the ADP-Glo system (Promega), which measures formation of ADP using a luminescence-based method. Compounds were serially diluted in DMSO. 20 nL of compound or DMSO only (high control, HC) were added to a 384-well plate (OptiPlate-384, PerkinElmer) using an Echo550 liquid handler (Labcyte). 15 μL of kinase solution (10 mM MgCl2, 0.01% Brij-35, 2 mM DTT, 0.05% BSA, 1 mM EGTA, 50 mM HEPES pH 7.5, and 3.325 nM ABL1 [Carna Biosciences]) were added to each well of the 384-well plate containing the compounds. No enzyme control wells were included (low control, LC). The plate was incubated at room temperature for 30 minutes. 5 μL of a second solution containing 10 mM MgCl2, 0.01% Brij-35, 2 mM DTT, 0.05% BSA, 1 mM EGTA, 50 mM HEPES pH 7.5, 6 μM Peptide 2 (Perkin Elmer, Cat No 760346), and 40 μM ATP were added to each well to start the kinase reaction. The plate was incubated for 90 minutes at room temperature. 20 μL of ADP-Glo reagent (Promega) were then added to each well and the plate was incubated for 40 minutes at room temperature. 40 μL of kinase detection reagent (Promega) was added to each well and the plate was incubated for an additional 45 minutes at room temperature. During this step, ADP was converted to ATP, a substrate for luciferase, to produce luminescence signal. Luminescence was measured on an Envision plate reader (Perkin Elmer). Luminescence signal positively correlates with kinase activity. The percent kinase activity was calculated as follows: percent kinase activity=100×(LumSample−LumLC)/(LumHC−LumLC). As noted above, DMSO only and no enzyme wells were used as high and low controls, respectively. IC50 values were calculated using the XLFit software.

ABL1 (T315I) = ABL1 (T315I) (Homo sapiens (Human), UniProt P00519, T315I); experiment: as above; details: measured using the Abl1 Km assay, read-out: IC50 (nM), value inside parentheses
Protocol: as §1

c-KIT = c-KIT (Homo sapiens (Human), UniProt P10721); experiment: Luminescence-based c-KIT kinase assay (Km ATP), ADP-Glo; details: compound at 100 nM concentration
Sequence of c-KIT (P10721 26-976): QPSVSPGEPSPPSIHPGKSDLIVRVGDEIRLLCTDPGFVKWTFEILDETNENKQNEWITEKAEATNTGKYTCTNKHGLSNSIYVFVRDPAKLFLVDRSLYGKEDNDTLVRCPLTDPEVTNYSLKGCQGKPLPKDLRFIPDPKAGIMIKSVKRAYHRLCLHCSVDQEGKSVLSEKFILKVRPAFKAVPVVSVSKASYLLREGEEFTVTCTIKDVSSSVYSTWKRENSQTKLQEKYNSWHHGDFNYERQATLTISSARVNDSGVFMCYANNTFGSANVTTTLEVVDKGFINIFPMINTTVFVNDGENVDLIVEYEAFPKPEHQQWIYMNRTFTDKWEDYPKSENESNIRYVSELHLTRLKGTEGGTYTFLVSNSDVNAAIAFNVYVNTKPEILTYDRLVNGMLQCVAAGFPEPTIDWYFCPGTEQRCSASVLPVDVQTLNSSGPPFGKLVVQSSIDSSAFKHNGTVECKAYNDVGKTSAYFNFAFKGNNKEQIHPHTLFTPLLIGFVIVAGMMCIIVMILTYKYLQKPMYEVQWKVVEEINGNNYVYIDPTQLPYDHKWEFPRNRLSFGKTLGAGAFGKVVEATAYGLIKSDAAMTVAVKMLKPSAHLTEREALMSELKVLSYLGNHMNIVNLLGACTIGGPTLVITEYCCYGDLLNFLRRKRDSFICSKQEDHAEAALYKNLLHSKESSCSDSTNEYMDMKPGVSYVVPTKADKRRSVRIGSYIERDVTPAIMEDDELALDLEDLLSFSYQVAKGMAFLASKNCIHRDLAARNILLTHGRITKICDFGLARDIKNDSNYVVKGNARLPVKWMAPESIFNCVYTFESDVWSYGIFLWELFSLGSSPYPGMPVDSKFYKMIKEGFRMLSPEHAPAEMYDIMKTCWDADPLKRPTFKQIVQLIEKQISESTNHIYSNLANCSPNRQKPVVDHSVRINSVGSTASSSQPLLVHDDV
Protocol: (§2) Kinase activity of c-KIT was measured using the ADP-Glo system (Promega). Compounds were diluted in DMSO at 100 μM. 20 nL of compound or DMSO only (high control, HC) were added to a 384-well plate (OptiPlate-384, PerkinElmer) using an Echo550 liquid handler (Labcyte). 15 μL of kinase solution (10 mM MgCl2, 0.01% Brij-35, 2 mM DTT, 0.05% BSA, 1 mM EGTA, 50 mM HEPES pH 7.5, and 13.3 nM c-KIT [Carna Biosciences]) were added to each well of the 384-well plate containing the compounds. No enzyme control wells were included (low control, LC). The plate was incubated at room temperature for 30 minutes. 5 μL of a second solution containing 10 mM MgCl2, 0.01% Brij-35, 2 mM DTT, 0.05% BSA, 1 mM EGTA, 50 mM HEPES pH 7.5, 0.8 μg/ml Poly(Glu-Tyr) (Sigma, Cat No 97105-00-5), and 400 μM ATP were added to each well to start the kinase reaction. The plate was incubated for 90 minutes at room temperature. 20 μL of ADP-Glo reagent (Promega) were then added to each well and the plate was incubated for 40 minutes at room temperature. […] During this step, ADP was converted to ATP, a substrate for luciferase, to produce luminescence signal. Luminescence was measured on an Envision plate reader (Perkin Elmer). Luminescence signal positively correlates with kinase activity. The percent inhibition of kinase activity was calculated as follows: percent inhibition=100×(LumHC−LumSample)/(LumHC−LumLC). […]

SRC = SRC (Homo sapiens (Human), UniProt P12931); experiment: Luminescence-based SRC kinase assay (Km ATP), ADP-Glo; details: compound at 100 nM concentration
Sequence of SRC (P12931 whole entry): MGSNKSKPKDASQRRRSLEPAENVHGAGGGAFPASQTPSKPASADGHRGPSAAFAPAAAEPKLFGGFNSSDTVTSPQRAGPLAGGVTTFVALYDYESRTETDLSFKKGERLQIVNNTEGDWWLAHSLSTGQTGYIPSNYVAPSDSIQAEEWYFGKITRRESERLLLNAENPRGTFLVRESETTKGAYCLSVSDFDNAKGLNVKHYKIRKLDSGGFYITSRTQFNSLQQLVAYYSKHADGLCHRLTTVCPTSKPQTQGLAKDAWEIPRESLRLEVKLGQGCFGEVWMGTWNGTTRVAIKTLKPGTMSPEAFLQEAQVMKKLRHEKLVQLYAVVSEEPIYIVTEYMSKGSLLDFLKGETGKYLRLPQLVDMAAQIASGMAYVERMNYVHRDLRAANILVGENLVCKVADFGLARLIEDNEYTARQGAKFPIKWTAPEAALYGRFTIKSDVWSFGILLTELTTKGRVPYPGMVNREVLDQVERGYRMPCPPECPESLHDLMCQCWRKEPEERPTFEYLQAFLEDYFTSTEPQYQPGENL
Protocol: as §2, with “SRC” for “c-KIT”, “0.532” for “13.3”, “6 μM Peptide 4 (Perkin Elmer,” for “0.8 μg/ml Poly(Glu-Tyr) (Sigma,”, “760348),” for “97105-00-5),”, “200” for “400”

SMILES	IC50 (ABL1) [nM]	IC50 (ABL1 (T315I)) [nM]	inhibition at 0.1 µM (c-KIT) [%]	inhibition at 0.1 µM (SRC) [%]
Cc1c(F)cncc1-c1cc2cnc(NC(=O)C3CC3)cc2n(C)c1=O [Compound 2, N-[3-(5-fluoro-4-methylpyridin-3-yl)-1-methyl-2-oxo-1,6-naphthyridin-7-yl]cyclopropanecarboxamide]	1.8	680	17	77
Cc1c(F)cncc1-c1cc2cnc(NC(=O)[C@@H]3C[C@@H]3F)cc2n(C)c1=O [Compound 28, (1S,2S)-2-fluoro-N-[3-(5-fluoro-4-methylpyridin-3-yl)-1-methyl-2-oxo-1,6-naphthyridin-7-yl]cyclopropane-1-carboxamide]	2.2	1500	7.3	48
